ChEMBL document CHEMBL1201862, “PubChem BioAssay data set” (2004)
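Dose response: 5 concentrations. Exposure: 48 h. Format: 96-well plates. Endpoint: linear interpolation; highest concentration if not reached. GI50: concentration for 50% inhibition of growth.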 The source made the active and inactive calls. No stated cut-off is given here; in the data, active = GI50 up to about 1.1 µM and inactive = higher.

Legend:
Assay in all cases: NCI-60 cell line screen, 48 h
[1] = system: CCRF-CEM
[2] = system: KM-20L2
[3] = system: Malme-3M
[4] = system: SW-620
[5] = system: SNB-75
[6] = system: SNB-19
[7] = system: SK-OV-3
[8] = system: M14
[9] = system: XF498
[10] = system: A549
[11] = system: SK-MEL-2
[12] = system: M19-MEL
[13] = system: SR
[14] = system: LXFL 529
[15] = system: CAKI-1
[16] = system: HCT-15
[17] = system: RXF 631
[18] = system: UACC-257
[19] = system: OVCAR-5
[20] = system: SF-539
[21] = system: UO-31
[22] = system: U-251
[23] = system: HCC 2998
[24] = system: SK-MEL-28
[25] = system: MOLT-4
[26] = system: SN12C
[27] = system: A498
[28] = system: COLO 205
[29] = system: DMS-273
[30] = system: ACHN
[31] = system: DMS-114
[32] = system: NCI-H522
[33] = system: TK-10
[34] = system: HT-29
[35] = system: UACC-62
[36] = system: RPMI-8226
[37] = system: NCI-H226
[38] = system: SF-268
[39] = system: DLD-1
[40] = system: K562
[41] = system: NCI-H23
[42] = system: SF-295
[43] = system: HCT-116
[44] = system: LOX IMVI
[45] = system: KM12
[46] = system: HOP-18
[47] = system: EKVX
[48] = system: 786-0
[49] = system: HL-60
[50] = system: RXF 393
[51] = system: SK-MEL-5
[52] = system: OVCAR-3
[53] = system: IGROV-1
[54] = system: OVCAR-8
[55] = system: OVCAR-4
[56] = system: HOP-92
[57] = system: SNB-78
[58] = system: NCI-H460
[59] = system: HOP-62

## CNC(=O)OCc1nc(SSc2nc(COC(=O)NC)c(COC(=O)NC)n2C)n(C)c1COC(=O)NC
[1]
  GI50: > 100 µM (inactive)
[2]
  GI50: > 100 µM (inactive)
[3]
  GI50: > 100 µM (inactive)
[4]
  GI50: > 100 µM (inactive)
[5]
  GI50: > 100 µM (inactive)
[6]
  GI50: > 100 µM (inactive)
[7]
  GI50: > 100 µM (inactive)
[8]
  GI50: > 100 µM (inactive)
[9]
  GI50: > 100 µM (inactive)
[10]
  GI50: > 100 µM (inactive)
[11]
  GI50: > 100 µM (inactive)
[12]
  GI50: > 100 µM (inactive)
[13]
  GI50: > 100 µM (inactive)
[14]
  GI50: > 100 µM (inactive)
[15]
  GI50: > 100 µM (inactive)
[16]
  GI50: > 100 µM
[17]
  GI50: > 100 µM (inactive)
[18]
  GI50: > 100 µM (inactive)
[19]
  GI50: > 100 µM (inactive)
[20]
  GI50: > 100 µM (inactive)
[21]
  GI50: > 100 µM (inactive)
[22]
  GI50: > 100 µM (inactive)
[23]
  GI50: > 100 µM (inactive)
[24]
  GI50: > 100 µM (inactive)
[25]
  GI50: > 100 µM (inactive)
[26]
  GI50: > 100 µM (inactive)
[27]
  GI50: > 100 µM (inactive)
[28]
  GI50: > 100 µM (inactive)
[29]
  GI50: > 100 µM (inactive)
[30]
  GI50: > 100 µM (inactive)
[31]
  GI50: > 100 µM (inactive)
[32]
  GI50: > 100 µM (inactive)
[33]
  GI50: > 100 µM (inactive)
[34]
  GI50: > 100 µM (inactive)
[35]
  GI50: > 100 µM (inactive)
[36]
  GI50: > 100 µM (inactive)
[37]
  GI50: > 100 µM (inactive)
[38]
  GI50: > 100 µM (inactive)
[39]
  GI50: > 100 µM (inactive)
[40]
  GI50: > 100 µM (inactive)
[41]
  GI50: > 100 µM (inactive)
[42]
  GI50: > 100 µM (inactive)
[43]
  GI50: > 100 µM (inactive)
[44]
  GI50: > 100 µM (inactive)
[45]
  GI50: > 100 µM (inactive)
[46]
  GI50: > 100 µM (inactive)
[47]
  GI50: > 100 µM (inactive)
[48]
  GI50: > 100 µM (inactive)
[49]
  GI50: > 100 µM (inactive)
[50]
  GI50: > 100 µM (inactive)
[51]
  GI50: > 100 µM (inactive)
[52]
  GI50: > 100 µM (inactive)
[53]
  GI50: > 100 µM (inactive)
[54]
  GI50: > 100 µM (inactive)
[55]
  GI50: > 100 µM (inactive)
[56]
  GI50: > 100 µM (inactive)
[57]
  GI50: > 100 µM (inactive)
[58]
  GI50: > 100 µM (inactive)
[59]
  GI50: > 100 µM (inactive)

## CC(=O)CC(N)=O
[1]
  GI50: > 100 µM (inactive)
[2]
  GI50: > 100 µM (inactive)
[3]
  GI50: > 100 µM (inactive)
[4]
  GI50: > 100 µM (inactive)
[5]
  GI50: > 100 µM (inactive)
[6]
  GI50: > 100 µM (inactive)
[7]
  GI50: > 100 µM (inactive)
[8]
  GI50: > 100 µM (inactive)
[9]
  GI50: > 100 µM (inactive)
[10]
  GI50: > 100 µM (inactive)
[11]
  GI50: > 100 µM (inactive)
[12]
  GI50: > 100 µM (inactive)
[13]
  GI50: > 100 µM (inactive)
[14]
  GI50: > 100 µM (inactive)
[15]
  GI50: > 100 µM (inactive)
[16]
  GI50: > 100 µM
[17]
  GI50: > 100 µM (inactive)
[18]
  GI50: > 100 µM (inactive)
[19]
  GI50: > 100 µM (inactive)
[20]
  GI50: > 100 µM (inactive)
[21]
  GI50: > 100 µM (inactive)
[22]
  GI50: > 100 µM (inactive)
[23]
  GI50: > 100 µM (inactive)
[24]
  GI50: > 100 µM (inactive)
[25]
  GI50: > 100 µM (inactive)
[26]
  GI50: > 100 µM (inactive)
[27]
  GI50: > 100 µM (inactive)
[28]
  GI50: > 100 µM (inactive)
[29]
  GI50: > 100 µM (inactive)
[30]
  GI50: > 100 µM (inactive)
[31]
  GI50: > 100 µM (inactive)
[32]
  GI50: > 100 µM (inactive)
[33]
  GI50: > 100 µM (inactive)
[34]
  GI50: > 100 µM (inactive)
[35]
  GI50: > 100 µM (inactive)
[36]
  GI50: > 100 µM (inactive)
[37]
  GI50: > 100 µM (inactive)
[38]
  GI50: > 100 µM (inactive)
[39]
  GI50: > 100 µM (inactive)
[40]
  GI50: > 100 µM (inactive)
[41]
  GI50: > 100 µM (inactive)
[42]
  GI50: > 100 µM (inactive)
[43]
  GI50: > 100 µM (inactive)
[45]
  GI50: > 100 µM (inactive)
[46]
  GI50: > 100 µM (inactive)
[47]
  GI50: > 100 µM (inactive)
[48]
  GI50: > 100 µM (inactive)
[49]
  GI50: > 100 µM (inactive)
[50]
  GI50: > 100 µM (inactive)
[51]
  GI50: > 100 µM (inactive)
[52]
  GI50: > 100 µM (inactive)
[53]
  GI50: > 100 µM (inactive)
[54]
  GI50: > 100 µM (inactive)
[55]
  GI50: > 100 µM (inactive)
[56]
  GI50: > 100 µM (inactive)
[57]
  GI50: > 100 µM (inactive)
[58]
  GI50: > 100 µM (inactive)
[59]
  GI50: > 100 µM (inactive)

## CC1=CC=NN2C(=O)[C@H](C)C2C1 (stereo not given in full)
[1]
  GI50: > 100 µM (inactive)
[2]
  GI50: > 100 µM (inactive)
[3]
  GI50: > 100 µM (inactive)
[4]
  GI50: > 100 µM (inactive)
[5]
  GI50: > 100 µM (inactive)
[6]
  GI50: > 100 µM (inactive)
[7]
  GI50: > 100 µM (inactive)
[8]
  GI50: > 100 µM (inactive)
[9]
  GI50: > 100 µM (inactive)
[10]
  GI50: > 100 µM (inactive)
[11]
  GI50: > 100 µM (inactive)
[12]
  GI50: > 100 µM (inactive)
[13]
  GI50: > 100 µM (inactive)
[14]
  GI50: > 100 µM (inactive)
[16]
  GI50: > 100 µM
[17]
  GI50: > 100 µM (inactive)
[18]
  GI50: > 100 µM (inactive)
[19]
  GI50: > 100 µM (inactive)
[20]
  GI50: > 100 µM (inactive)
[21]
  GI50: > 100 µM (inactive)
[22]
  GI50: > 100 µM (inactive)
[23]
  GI50: > 100 µM (inactive)
[24]
  GI50: > 100 µM (inactive)
[25]
  GI50: > 100 µM (inactive)
[26]
  GI50: > 100 µM (inactive)
[27]
  GI50: > 100 µM (inactive)
[28]
  GI50: > 100 µM (inactive)
[29]
  GI50: > 100 µM (inactive)
[30]
  GI50: > 100 µM (inactive)
[31]
  GI50: > 100 µM (inactive)
[32]
  GI50: > 100 µM (inactive)
[33]
  GI50: > 100 µM (inactive)
[34]
  GI50: > 100 µM (inactive)
[35]
  GI50: > 100 µM (inactive)
[36]
  GI50: > 100 µM (inactive)
[37]
  GI50: > 100 µM (inactive)
[38]
  GI50: > 100 µM (inactive)
[39]
  GI50: > 100 µM (inactive)
[40]
  GI50: > 100 µM (inactive)
[41]
  GI50: > 100 µM (inactive)
[42]
  GI50: > 100 µM (inactive)
[43]
  GI50: > 100 µM (inactive)
[44]
  GI50: > 100 µM (inactive)
[45]
  GI50: > 100 µM (inactive)
[46]
  GI50: > 100 µM (inactive)
[47]
  GI50: > 100 µM (inactive)
[48]
  GI50: > 100 µM (inactive)
[49]
  GI50: > 100 µM (inactive)
[50]
  GI50: > 100 µM (inactive)
[51]
  GI50: > 100 µM (inactive)
[52]
  GI50: > 100 µM (inactive)
[53]
  GI50: > 100 µM (inactive)
[54]
  GI50: > 100 µM (inactive)
[55]
  GI50: > 100 µM (inactive)
[56]
  GI50: > 100 µM (inactive)
[57]
  GI50: > 100 µM (inactive)
[58]
  GI50: > 100 µM (inactive)
[59]
  GI50: > 100 µM (inactive)
